Tests used:
[1] = tested on: pHrodo Red S. aureus BioParticles phagocytosed by human neutrophils; assay: Infection-on-a-chip phagocytosis (pHrodo fluorescence); type: cell-based; details: at 2 h
Experimental: For neutrophils used in microfluidic devices, de-identified fresh blood samples (10 mL) were purchased from Research Blood Components where blood samples were obtained from healthy volunteers aged ≥18 years who were not receiving immunosuppressant agents. Additionally, venous blood samples from healthy volunteers were collected by phlebotomy, after receipt of written informed consent, and under approval by the MGH Institutional Review Board (protocol 2008-P-002123). Neutrophils were isolated from whole blood using EasySep direct human neutrophil isolation kit (StemCell Technologies) as per the manufacturer’s instructions.
Use of this microfluidic device for monitoring migration of neutrophils and control of the S. aureus growth in cell culture medium has been outlined in detail previously. Briefly, microfluidic devices were primed with S. aureus (SH1000-GFP, 1 × 10^6/mL) in culture media (Iscove’s Modified Dulbecco’s Medium + 10% Fetal Bovine Serum) by loading the outer chamber and applying vacuum to draw bacteria into the inner chambers. The outer chamber was then washed by pushing 200 µL of media through the device using a pipette, and loaded with neutrophils (5.5 × 10^6/mL, stained with Hoechst 33342 dye, 10 min at 32 μM). Additionally, neutrophil phagocytosis was monitored by using pHrodo Red S. aureus BioParticles® (Life Technologies) in replace of live S. aureus cells. BioParticles were used at a final concentration of 1 × 10^7/mL, which gave 50–100 BioParticles within the microchamber. The concentration of cells were determined by hemocytometer.
Kinetics of neutrophil migration, S. aureus growth and phagocytosis was determined using imaging with an automated Nikon Eclipse TiE inverted wide-field microscope with stage control and perfect focus system run through the Nikon NIS element v4. The biochamber was maintained temperature at 37 °C and CO2 at 5% for the 8 h of the experiment, where images were captured every 5 min for each field of view (FOV), with at least 4 FOV captured per experimental condition. For each experimental condition at least 12 chambers were tracked for neutrophil migration using the FIJI[64] plugin Trackmate[65]. The percentage of neutrophils recruited into the chamber was determined relative to the total number of neutrophils in each FOV divided by the number of chambers visible. Data were averaged and the results from at least 3 donors plotted. The pHrodo or S. aureus GFP fluorescence within the microchamber was calculated by thresholding the image and measuring the area in FIJI[36]. Data were plotted using GraphPad Prism 8 software (GraphPad Software, San Diego, CA, USA).

[2] = biological target: T1, formyl peptide receptor 1 (FPR1) (human, UniProt P21462 1-350)
T1 sequence (looked up): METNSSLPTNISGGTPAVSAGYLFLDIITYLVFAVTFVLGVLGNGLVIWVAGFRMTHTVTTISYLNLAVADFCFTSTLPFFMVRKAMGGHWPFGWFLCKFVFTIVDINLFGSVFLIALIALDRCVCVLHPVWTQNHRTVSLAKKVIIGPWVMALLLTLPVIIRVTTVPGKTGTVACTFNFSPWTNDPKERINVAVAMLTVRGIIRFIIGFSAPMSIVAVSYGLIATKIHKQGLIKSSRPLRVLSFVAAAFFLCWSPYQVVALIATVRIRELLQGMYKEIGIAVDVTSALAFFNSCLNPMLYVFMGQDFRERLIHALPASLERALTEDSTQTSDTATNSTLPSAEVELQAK

[3] = tested on: FPR2 of human neutrophils; assay: FPR competition binding assay with RhB-PB10; details: 8 µM peptide, 5 min, after RhB-PB10 15 µM 1 h, Bis-Tris pH 6
Experimental: A competition binding assay was performed based modification of the previous method. To determine the interaction of the formylated peptides with FPR2 of human neutrophils the fluorescently labelled FPR2 antagonist RhB-PB10 was used. RhB-PB10 was synthesized by solid-phase peptide synthesis on Wang resin. After initial acylation with Fmoc-L-Arg(Pbf)-OH, peptide elongation was performed using a solution of 20% piperidine for Fmoc removal and DIC/ Oxyma for Fmoc-amino acid or Rhodamine B coupling. After completion of the sequence, the peptide was cleaved from the resin and protecting groups were removed via TFA cleavage. Following concentration, the peptide was precipitated using diethyl ether, collected by centrifugation on a spark-resistant centrifuge and purified using RP-HPLC.
RhB-PB10 (15 μM) was preincubated with human neutrophils (5 × 10^6 neutrophils/mL) in Bis-Tris buffer pH 6 for 1 h. […] Any RhB-PB10 that was competed off by the peptides was then removed by washing in Bis-Tris buffer. Rhodamine B fluorescence levels of each sample were determined using microplate reader (Clariostar plate reader, BMG) with ex 550 nm, em 585 nm.

Substance | area of pHrodo fluorescence per neutrophil recruited into the microchamber ([1]; donor 2) | area of pHrodo fluorescence per neutrophil recruited into the microchamber ([1]; donor column 1) | area of pHrodo fluorescence per neutrophil recruited into the microchamber ([1]; donor column 3) | area of pHrodo fluorescence per neutrophil recruited into the microchamber ([1]; donor column 4) | also measured
Van-C(fML-Tyr-G-Tz) [C19] | 3.5 | 9.2 | 7.8 | 2.6 | –
Van-C(fMLF-Leu-Tz) [C18] | 4.4 | 7.9 | 2.1 | 1.8 | –
fMChaFG = van (fMChaFG conjugated to the C-terminus of vancomycin) (peptide) | – | – | – | – | ERK1/2 phosphorylation at 5 min in CHO cells overexpressing human FPR1, potency of the conjugate against the free peptide (lower potency) [2]: 10 fold; calcium mobilization in CHO cells overexpressing human FPR1, potency of the conjugate against the free peptide (lower potency) [2]: > 90 fold
fMIVIL [FPR2 specific agonist (Auspep)] | – | – | – | – | RhB-PB10 binding to neutrophils relative to control (=1) ([3]; replicate 1): 0.81; RhB-PB10 binding to neutrophils relative to control (=1) ([3]; replicate 2): 0.79; RhB-PB10 binding to neutrophils relative to control (=1) ([3]; replicate 3): 0.62; RhB-PB10 binding to neutrophils relative to control (=1) ([3]; replicate 4): 0.75; RhB-PB10 binding to neutrophils relative to control (=1) ([3]; replicate 5): 0.7
fML-Tyr-G-NH2 [FP12] | 4.1 | 4.7 | 1.5 | 2.8 | –
fMLF-Leu-NH2 [FP19] | 7.8 | 6.5 | 1.5 | 2.3 | –

Reference: article PMC8546149, “Antibiotic-chemoattractants enhance neutrophil clearance of Staphylococcus aureus” (Nature Communications, 2021)
